Experimental data: patent US11904038B2 (INDUSTRY-ACADEMIC COOPERATION FOUNDATION, YONSEI UNIVERSITY, priority 2017, dated 2024)

How the values were obtained:
[1] = system: WEHI-3 murine leukemia cells; conditions: in vitro, Lin et al. 2015; cited from earlier work
IGF-1 [2] = experiment: RT-PCR mRNA expression of IGF-1; format: cell-based, human; conditions: phellandrene 20 μM, 24 hours, FIG. 6
Method: (§1) 24 hours after the treatment, the cells were collected and total RNA was extracted with Trizol Reagent (Gibco BRL, USA). The total RNA was quantified by absorbance measurement at 260 nm.
(§2) After isolation of RNA, cDNA was synthesized by performing reverse transcription using oligo dT primers and SuperScript reverse transcriptase (GIBCOBRL, Gaithersburg, MD, USA). PCR was performed using, as a template, cDNA obtained through reverse transcription and using, as primers, 5′ and 3′ flanking sequences of the gene's cDNA to be amplified. Here, required primers were obtained by making a request for synthesis with a company specializing in primer manufacturing (BIONEER CORPORATION, Korea) and used. To a mixture obtained by mixing of 5 μl of 10× reaction buffer [100 mM KCL, 20 mM Tris-HCl (pH 8.0), 2.5 mM MgCl2], 4 μl of 10 mM dNTP, and 1 μl each of 0.2 μM sense and antisense primers, were added 2 μl of the completed cDNA reaction mixture and 2.5 unit of Taq polymerase (Takara, Japan). Then, the volume was adjusted with 50 μl of distilled water, and PCR was performed using a PCR instrument. PCR conditions were set to 94° C. for 4 minutes, 94° C. (30 seconds), 30 cycles of [52° C. (30 seconds), 72° C. (45 seconds)], and 72° C. for 10 minutes.

β-catenin = experiment: Western blot analysis of β-catenin; format: cell-based, human; conditions: phellandrene 20 μM, protein, (B) of FIG. 5
Method: (§3) Protein quantification was performed by Bradford assay.
(§4) 40 μg of the protein was electrophoresed on 10% SDS polyacrylamide gel and then transferred to nitrocellulose membranes. The protein was allowed to react with each of PKA Cα, β-catenin, β-actin, and GAPDH antibody (Cell Signaling Technology, Danvers, MA, USA). Each protein's signal was visualized with a chemiluminescent detection system (Amersham), and then the band's thickness was quantified using the Quantity One Analysis Software (Bio-Rad Laboratories).

VEGF [3] = experiment: human VEGF ELISA of culture solutions; format: cell-based; conditions: phellandrene 20 μM, 24 hours, vs DMSO, (A) of FIG. 3
Method: (§5) DMSO was used as a negative control group. The phellandrene-treated culture solutions were collected after 24 hours, and experiments were conducted using human VEGF ELISA Kit (Enzo Life Sciences, NY, USA), human IGF-1 ELISA kit (Enzo Life Sciences, NY, USA), and cAMP complete ELISA kit (Enzo Life Sciences, NY, USA), respectively, according to the manufacturers' protocol.

IGF-1 [4] = experiment: human IGF-1 ELISA of culture solutions; format: cell-based; conditions: phellandrene 20 μM, 24 hours, vs DMSO, (B) of FIG. 3
Method: as §5

PKA Cα = experiment: Western blot analysis of PKA Cα; format: cell-based, human; conditions: phellandrene 20 μM, protein, (A) of FIG. 5
Method: as §3, §4

VEGF [5] = experiment: RT-PCR mRNA expression of VEGF; format: cell-based, human; conditions: phellandrene 20 μM, 24 hours, FIG. 6
Method: as §1, §2

LEF = experiment: RT-PCR mRNA expression of LEF; format: cell-based, human; conditions: phellandrene 20 μM, 24 hours, FIG. 6
Method: as §1, §2

cAMP = cAMP complete ELISA; format: cell-based, human; conditions: phellandrene 20 μM, 24 hours, vs DMSO, FIG. 4
Method: as §5

[6] = system: neutrophil migration and mast cell stabilization; conditions: Siqueira et al. 2016; cited from earlier work
Cyc-D = experiment: RT-PCR mRNA expression of Cyc-D; format: cell-based, human; conditions: phellandrene 20 μM, 24 hours, FIG. 6
Method: as §1, §2

[7] = system: human hair dermal papilla cells; experiment: MTT assay: cell viability and proliferation in human hair dermal papilla cells; conditions: FIG. 2
Method: Human hair dermal papilla cells were purchased from PromoCell GmbH (Heidelberg, Germany). The human hair dermal papilla cells were cultured in an incubator at 37° C., 5% CO2 using HFDPC medium (PromoCell, Germany) with fetal bovine serum (FBS) and Dulbecco's modified Eagle's medium (DMEM; Gibco BRL, Gaithersburg, MD, USA). Due to the nature of the cells, cells at passages 2 to 5 were used for all experiments.
The human hair dermal papilla cells were dispensed into 24-well plates to 1×10^5 cells/well, and then cultured for 24 hours in an incubator at 37° C., 5% CO2 so that the cells are stabilized. Treatment with samples at respective concentrations (0, 10, 20, 50, 100, 200, 400 μg/ml) was performed and culture was performed for 24 hours. Then, treatment with 100 ul of 3-(4,5-dimethylthiazol-2-yl)-2,5-diphenyltetrazolium bromide (MTT; Sigma Aldrich, St. Louis, USA) reagent at a concentration of 200 mg/ml was performed and culture was performed again for 4 hours. After removing the medium, the precipitate (formazan) was dissolved in DMSO and the absorbance was measured at a wavelength of 540 nm. A proliferation rate thereof was evaluated based on the absorbance of a control group containing only DMSO.
The group containing only DMSO was set as a control group. […] Then, culture was performed for 24 hours, and cell viability was measured through an MTT assay.

phellandrene
known physiological function: apoptosis in leukemia cells [1]: induce apoptosis in leukemia cells
increase in mRNA expression of IGF (IGF-1 [2]): 217%
increase in expression of β-catenin in the cell nucleus (β-catenin): 30%
increase in concentration of VEGF (VEGF [3]): 27%
increase in concentration of IGF-1 (IGF-1 [4]): 18%
increase in expression of PKA Cα (PKA Cα): 42%
increase in mRNA expression of VEGF (VEGF [5]): 247%
increase in mRNA expression of LEF (LEF): 348%
increase in cAMP concentration (cAMP): 30%
known physiological function: anti-inflammatory [6]: serve as an anti-inflammatory agent
increase in mRNA expression of Cyc-D (Cyc-D): 250%
proliferation rate increase ([7]; phellandrene 10 μM): 10.8%
proliferation rate increase ([7]; phellandrene 20 μM): 24%
proliferation rate increase ([7]; phellandrene 50 μM): 18%
